{"source": "patent US20240327787A1", "about": "“CULTURE MEDIUM, COATING MATRIX AND METHOD FOR EXPANDING MIDBRAIN DOPAMINERGIC PROGENITOR CELLS” (NUWACELL BIOTECHNOLOGIES CO., LTD., priority 2022, published 2024)", "system": "imDAPs", "experiment": "Flow cytometry analysis of FOXA2 expression in expanded imDAPs", "type": "cell-based, human", "conditions": "VTN-coated", "protocol": "1. Individualize and collect cells by either Accutase or TrypLE treatment.\n2. Wash cells with 1 ml PBS and pellet cells at 250×g for 15 sec.\n3. Remove supernatant, add ˜200 μl of 4% PFA, mix and fix for 10 min at RT.\n4. Pellet cells at 350×g for 5 min.\n5. Wash cells by 1 ml of FACS buffer and pellet cells at 350×g for 5 min.\n6. Remove supernatant, add 200 μl/tube of FACS buffer/0.1% TritonX, mix for 10 min at RT.\n7. Wash cells by 1 ml of FACS buffer and pellet cells at 350×g for 5 min.\n8. Remove supernatant, add 200 μl/tube of primary antibody diluted in FACS buffer, mix gently, and incubate for 30 min at RT.\n9. Wash cells by 1 ml of FACS buffer and pellet cells at 350×g for 5 min.\n10. Remove supernatant, and add 200 μl of secondary antibody diluted in FACS buffer, mix gently, and incubate for 30 min at RT.\n11. Wash cells by 1 ml of FACS buffer and pellet cells at 300×g for 5 min.\n12. Remove supernatant, add 200 μl of FACS buffer, and run samples on the flow cytometry.\nimDAPs were produced according to the method described in CN201910169525.0. The imDAPs (P0) were seeded on VTN-coated plates (1 μg/cm^2) at a low density of 1×10^4 cells/cm^2, and cultured in the expansion medium (50% DMEM/F12, 50% Neurobasal™ medium, 1% (v/v) Glutamax, 2% (v/v) B27 (50×), 0.2 μM LDN193189, 3 μM CHIR99021, 100 ng/mL FGF8b) with either 5 μM Blebbistatin or 10 μM Y27632. Medium was replaced every 3rd day. At Day 6, cells were collected for FACS analysis.\nimDAPs were produced according to the method described in CN201910169525.0. The imDAPs (P0) were seeded on DLL4-coated (1 μg/cm^2), VTN-coated (1 μg/cm^2) and DLL4/VTN-coated (1 μg/cm^2 for each) plates at a low density of 1×10^4 cells/cm^2 respectively, and cultured in the expansion medium in the absence or presence of 5 μM SB431542. Medium was replaced every 3rd day until reaching 100% confluence (6 days) for cell collection. The typical cell morphology on day 4 was recorded (FIG. 4A). The cell number of each group was counted by Vi-cell cytometer (FIG. 4B). The cells of each group were stained with Foxa2-PE antibody (BD, #561589), the percentage of Foxa2+ imDAPs were analyzed by flow cytometry (FIG. 4C). The expansion medium used in this example contained the following components: 50% DMEM/F12, 50% Neurobasal™ medium, 1% (v/v) Glutamax, 1% (v/v) B27, 50 μg/ml ascorbic acid, 0.2 μM LDN193189, 100 ng/ml FGF8b, 3 μM CHIR99021 and 10 µM Y27632.\nimDAPs were produced according to the method described in CN201910169525.0. The imDAPs (P0) were seeded on DLL4/VTN-coated (1 μg/cm^2 for each) plates at a low density of 1×10^4 cells/cm^2, and cultured in the expansion medium (EM1, EM2, EM3, EM4). Medium was replaced every 3rd day until reaching 100% confluence (6 days) for cell collection. EM1 used in Example 9 contained the following components: 50% DMEM/F12, 50% Neurobasal™ medium, 1% (v/v) Glutamax, 1% (v/v) B27 (50×), 50 μg/ml ascorbic acid, 3 μM CHIR99021, 5 μM SB431542 and 10 μM Y27632. EM2 used in Example 9 contained the following components: 50% DMEM/F12, 50% Neurobasal™ medium, 1% (v/v) Glutamax, 1% (v/v) B27 (50×), 50 μg/ml ascorbic acid, 0.2 μM LDN193189, 3 μM CHIR99021, 5 μM SB431542 and 10 μM Y27632. EM3 used in Example 9 contained the following components: 50% DMEM/F12, 50% Neurobasal™ medium, 1% (v/v) Glutamax, 1% (v/v) B27 (50×), 50 μg/mL ascorbic acid, 0.2 μM LDN193189, 100 ng/ml FGF8b, 3 μM CHIR99021, 5 μM SB431542 and 10 μM Y27632. […]", "note": "Counter-ions that a name gives are not always drawn.", "data": [{"compound": "C[C@@H](N)[C@H]1CC[C@H](C(=O)Nc2ccncc2)CC1", "note": "[Y27632, (R)-(+)-trans-4-(1-aminoethyl)-N-(4-pyridyl) cyclohexanecarboxamide dihydrochloride]", "values": [{"measurement": "percentage of Foxa2-expressing cells (FIG. 2)", "setting": "10 μM Y27632 vs 5 μM Blebbistatin in expansion medium, 1×10^4 cells/cm^2, Day 6", "result": "capable of improving the percentage of Foxa2-expressing cells than Blebbistatin"}, {"measurement": "percentage of Foxa2-expressing cells during passages", "setting": "expansion medium with 10 μM Y27632", "result": "still decreased during passages"}]}]}
